From patent publication US20220220135A1 (BAR-ILAN UNIVERSITY, priority 2019, published 2022)

How the values were obtained:
[1] = target: T1, human NPP3 (Homo sapiens, UniProt O14638); test: Inhibition of human NPP3, 100 μM p-Nph-5′-TMP as substrate (Tables 5, 7); assay type: biochemical; details: 100 μM p-Nph-5′-TMP as a substrate; n = 3
T1 sequence (O14638 1-875): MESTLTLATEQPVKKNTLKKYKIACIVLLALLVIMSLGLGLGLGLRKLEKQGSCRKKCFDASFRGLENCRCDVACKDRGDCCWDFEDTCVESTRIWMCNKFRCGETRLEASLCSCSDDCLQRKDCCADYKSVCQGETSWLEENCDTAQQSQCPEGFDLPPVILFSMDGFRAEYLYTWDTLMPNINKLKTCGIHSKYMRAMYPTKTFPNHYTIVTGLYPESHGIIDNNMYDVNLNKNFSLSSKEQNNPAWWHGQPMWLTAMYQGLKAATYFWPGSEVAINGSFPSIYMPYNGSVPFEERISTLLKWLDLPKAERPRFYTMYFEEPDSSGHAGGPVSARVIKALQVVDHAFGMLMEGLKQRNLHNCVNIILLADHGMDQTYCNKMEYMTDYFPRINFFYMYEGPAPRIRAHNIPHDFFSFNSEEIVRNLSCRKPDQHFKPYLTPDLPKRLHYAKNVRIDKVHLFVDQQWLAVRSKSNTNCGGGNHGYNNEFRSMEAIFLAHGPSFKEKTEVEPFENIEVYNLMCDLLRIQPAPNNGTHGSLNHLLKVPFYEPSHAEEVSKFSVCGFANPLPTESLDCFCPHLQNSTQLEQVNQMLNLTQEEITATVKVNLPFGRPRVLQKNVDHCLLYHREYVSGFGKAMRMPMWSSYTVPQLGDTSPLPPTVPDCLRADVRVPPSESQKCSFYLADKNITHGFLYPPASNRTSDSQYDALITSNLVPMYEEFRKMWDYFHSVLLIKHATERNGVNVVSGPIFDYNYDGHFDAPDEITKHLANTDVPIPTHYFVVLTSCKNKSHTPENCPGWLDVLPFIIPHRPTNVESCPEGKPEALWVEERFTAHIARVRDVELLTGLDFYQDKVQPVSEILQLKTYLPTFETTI

[2] = target: T2, human P2Y2R (Homo sapiens, UniProt P41231); test: Calcium mobilization in 1321N1 astrocytoma cells expressing human P2Y2R; assay type: cell-based
T2 construct: expressed in transfected cells; host or cells: 1321N1 astrocytoma cells
T2 sequence (P41231 whole entry): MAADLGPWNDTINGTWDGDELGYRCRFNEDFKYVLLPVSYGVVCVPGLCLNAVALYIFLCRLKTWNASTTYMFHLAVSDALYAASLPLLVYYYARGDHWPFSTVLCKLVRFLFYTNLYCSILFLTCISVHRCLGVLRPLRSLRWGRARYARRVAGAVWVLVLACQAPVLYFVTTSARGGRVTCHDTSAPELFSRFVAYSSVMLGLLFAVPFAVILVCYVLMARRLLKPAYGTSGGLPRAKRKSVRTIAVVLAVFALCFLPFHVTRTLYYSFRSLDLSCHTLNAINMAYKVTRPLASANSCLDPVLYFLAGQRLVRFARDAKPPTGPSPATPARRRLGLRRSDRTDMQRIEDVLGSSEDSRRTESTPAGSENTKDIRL
Protocol: Given the structural resemblance of 106-109 to the natural ligands of P2Y receptors, adenine and uracil nucleotides as natural substrates, were assessed for agonist potency on the human P2Y1, P2Y2, P2Y4, and P2Y6 receptor. To evaluate NPP1 selectivity of analogs 106-109, they were tested for their ability to activate of the uridine-nucleotide sensitive human recombinant P2Y1,2,4,6-receptors. The agonist potencies of this series of nucleotide analogues on the Gq protein-coupled human P2Y1R, P2Y2R, P2Y4R, and P2Y6R was determined by assessing its ability to induce calcium mobilization in stably transfected 1321N1 astrocytoma cells (Table 8). The nucleotide analogues were found in calcium mobilization assays to activate the P2Y2R with mid-micromolar potency.

[3] = target: T3, NPP1 (Homo sapiens, UniProt P22413); test: Inhibition of human NPP1, 100 μM p-Nph-5′-TMP as substrate (Tables 5, 6)
T3 sequence (P22413 1-925): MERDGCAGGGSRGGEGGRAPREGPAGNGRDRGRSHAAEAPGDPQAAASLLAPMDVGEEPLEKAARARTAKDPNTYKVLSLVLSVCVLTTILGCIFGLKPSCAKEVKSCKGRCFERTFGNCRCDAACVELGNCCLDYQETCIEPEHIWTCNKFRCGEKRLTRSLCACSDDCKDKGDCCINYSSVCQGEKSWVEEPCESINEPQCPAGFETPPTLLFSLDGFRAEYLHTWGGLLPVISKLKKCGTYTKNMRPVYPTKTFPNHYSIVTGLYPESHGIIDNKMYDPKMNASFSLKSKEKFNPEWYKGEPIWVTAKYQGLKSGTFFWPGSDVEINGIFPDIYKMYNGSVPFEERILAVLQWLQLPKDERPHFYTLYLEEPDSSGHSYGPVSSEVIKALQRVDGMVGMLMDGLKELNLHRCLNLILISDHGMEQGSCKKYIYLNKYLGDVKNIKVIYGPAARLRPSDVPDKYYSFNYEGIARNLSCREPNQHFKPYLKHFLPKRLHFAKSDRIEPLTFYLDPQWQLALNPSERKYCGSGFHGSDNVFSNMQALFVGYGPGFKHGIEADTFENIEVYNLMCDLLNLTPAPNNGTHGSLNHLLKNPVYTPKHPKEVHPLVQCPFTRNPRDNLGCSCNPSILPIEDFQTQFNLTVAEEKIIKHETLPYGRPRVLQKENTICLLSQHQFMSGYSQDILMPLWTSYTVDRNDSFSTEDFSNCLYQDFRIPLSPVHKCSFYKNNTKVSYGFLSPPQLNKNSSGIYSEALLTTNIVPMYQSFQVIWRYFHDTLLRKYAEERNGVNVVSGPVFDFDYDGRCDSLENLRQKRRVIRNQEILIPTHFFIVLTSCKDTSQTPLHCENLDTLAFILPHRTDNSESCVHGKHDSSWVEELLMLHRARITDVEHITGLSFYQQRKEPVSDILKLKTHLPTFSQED

[4] = target: T3, NPP1; test: Inhibition of human NPP1, ATP as substrate (analogues 9-12); assay type: biochemical; details: ATP (100 μM) as the substrate
Protocol: FIG. 2: Inhibition of NTPDases and NPPs by analogues 9-12 using as substrates ATP (100 μM) for NTPDase1,2,3,8 and pNP-TMP (100 μM) for NPP1,3 (Panel A); and ATP (100 μM) was used as the substrate for NPP1 (Panel B);
At least 2 independent experiments were performed. In panel A, the activity with 100 μM ATP was set as 100%, which was 287±31, 395±67, 278±22, 119±26 nmol of Pi·min−1·mg of protein−1 for human NTPDase1, -2, -3 and -8, respectively, and the activity with 100 μM pNP-TMP was set as 100% which was 67±5, 21±1 nmol of p-nitrophenol·min−1·mg of protein−1 for human NPP1 and NPP3, respectively. In panel B, the activity with 100 μM ATP was set as 100% which was 34±7 nmol of PPi·min−1·mg of protein−1 for NPP1.

Nc1ncnc2c1ncn2COCCOP(=S)(S)OP(=O)(O)O (centres unmarked) [compound 106]
% inhibition ± SEM, human NPP3 [1]: n.i.d
% activation at 10 μM, P2Y2 [2]: 32 ± 18%
Ki [3]: 1810 nM
inhibition at 10 µM ([3]; read-out: % inhibition ± SEM at 10 μM, human NPP1): 67 ± 1%

O=c1ccn([C@@H]2O[C@H](COP(=S)(S)OP(=O)(O)OP(=O)(O)OP(=S)(S)OC[C@H]3O[C@@H](n4ccc(=O)[nH]c4=O)[C@H](O)[C@@H]3O)[C@@H](O)[C@H]2O)c(=O)[nH]1 (some centres unmarked) [Analogue 12]
inhibition of human NPP1 activity [4]: effectively blocked
